Data from the METLIN SMRT retention time set (Domingo-Almenara et al. 2019).

Assay: gradient 5% acetonitrile 3 min, to 50% in 2 min, to 85% in 15 min, held 3 min, 100 µL/min
Conditions: column: Zorbax Extend-C18 2.1 x 50 mm; eluents: water / acetonitrile, 0.1% formic acid
Method in brief: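 Over 3 months, pure standards in mixtures of ~100 molecules were run by HPLC coupled to a quadrupole time-of-flight mass spectrometer in positive and negative ionization mode. The column was a Zorbax Extend-C18 (2.1 × 50 mm, 1.8 μm) at 100 μL/min, eluted with water and acetonitrile each holding 0.1% formic acid, with 40 μL dead and 900 μL dwell volumes. Retention time was determined from adduct peaks chosen by software and checked manually.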

| Structure (SMILES) | RP-LC retention time |
| --- | --- |
| COC(=O)c1ccc(NC(=O)Cn2nc3n(c2=O)CCCC3)cc1 | 647 s |
| COc1ccc(-c2ncc3c(n2)CCN(S(=O)(=O)c2ccc(C)c(Cl)c2)C3)cc1 | 1180 s |
| COc1ccc(Cl)cc1S(=O)(=O)N1CCCC(C(=O)NCCc2ccccc2)C1 (stereo not drawn) | 935 s |
| CCCN1C(=O)COc2ccc(-c3csc(NC(=O)c4cccc(Br)c4)n3)cc21 | 1160 s |
| O=S(=O)(c1ccccc1Cl)N1CC(F)(F)C[C@H]1COc1cccnc1 | 731 s |
| CCn1cc(-c2nc(CC(=O)Nc3ccc4c(c3)OCCO4)cs2)c2cccnc21 | 925 s |
| CC(C)(C)c1ccc(-c2nc(N3CCCC3)c3ccccc3n2)cc1 | 906 s |
| COC(=O)CNC(=O)N1c2ccccc2CC1c1nc(C2CC2)no1 (stereo not drawn) | 815 s |
| COc1cc([C@@H]2c3cc4c(cc3[C@H](O)[C@@H](CO)[C@@H]2C(=O)NCCc2ccccc2)OCO4)cc(OC)c1OC | 745 s |
| CC(C)NC(=O)c1nsc(C(=O)NC2CC2)c1N | 713 s |
| CCOC(=O)C1CCN(C(=O)Cn2nc3c(N4CCCCCC4)nccn3c2=O)CC1 | 652 s |
| COc1cccc2sc(N3CCN(C(=O)C4CCN(S(C)(=O)=O)CC4)CC3)nc12 | 697 s |
| COc1cccc(Cn2nc3c(S(=O)(=O)N4CCc5ccccc5C4)cccn3c2=O)c1 | 943 s |
| COc1ccc(-c2noc(-c3cc(N4CCN(C)CC4)nc4ccccc34)n2)cc1 | 794 s |
| Cc1ccc(Nc2cc(N3CCN(C(=O)COc4ncccn4)CC3)nc(C)n2)cc1 | 563 s |
| CCOc1cc(C(=O)Nc2ccc(F)cc2F)nc2c(F)cccc12 | 1350 s |
| Cc1ccc(NC(=O)Cn2cccc2-c2nnc(C3CCC3)o2)c(Cl)c1 | 1050 s |
| Cn1nccc1-c1cccc(-c2noc(-c3ccc(F)cc3F)n2)c1 | 1120 s |
| CCC(=O)Nc1ccc(CCc2nc3ccc(C(=O)NCc4ccc5c(c4)OCO5)cc3[nH]2)cc1 | 644 s |
| Cc1ccc(NC(=O)Cn2cnc3c(c2=O)CCCC3)cc1 | 710 s |
| CCC1CN2C=Nc3oc(C)c(C(=O)NCc4ccccc4Cl)c3C2=N1 (stereo not drawn) | 681 s |
| COCCn1nnnc1C1CC2(CCOCC2)C(=O)N1Cc1ccc(C(F)(F)F)cc1 (stereo not drawn) | 797 s |

| Structure (SMILES) | RP-LC retention time |
| --- | --- |
| Cc1n[nH]c(C)c1S(=O)(=O)N1CCC(c2nnc(-c3ccco3)s2)CC1 | 660 s |
| CSc1cccc(NC(=O)C2CCN(S(=O)(=O)c3ccc4[nH]c(=O)ccc4c3)CC2)c1 | 784 s |
| Cc1sc(-c2cc(C(F)(F)F)[nH]n2)cc1S(=O)(=O)N1CCC(C)CC1 | 1100 s |
| CCOc1cc(-c2noc(-c3nnn4c3COC(c3ccc(F)cc3)C4)n2)ccc1OC (stereo not drawn) | 1130 s |
| Cc1ccccc1CNC(=O)C1CCCN(S(=O)(=O)c2c[nH]c(C(=O)N3CCCC3)c2)C1 (stereo not drawn) | 877 s |
| COc1ccc(-c2noc(CN3N=NC4C(=O)N(c5ccc(OC)c(OC)c5)C(=O)C43)n2)c(OC)c1 (stereo not drawn) | 800 s |
| O=S(=O)(Nc1ccc2c(c1)OCO2)c1ccc2nncn2c1 | 648 s |
| COC(=O)c1ccccc1NCCO | 787 s |
| CCN1C(=O)C2CC3(CCN(C(=O)CC4CCCC4)CC3)CN2C1=O (stereo not drawn) | 741 s |
| CCOC(=O)c1ccccc1NC(=O)NCC(c1cccnc1)c1cn(C)c2ccccc12 (stereo not drawn) | 824 s |
| COc1ccc2c(C)c(CCC(=O)N[C@H](CC(C)C)C(=O)O)c(=O)oc2c1C | 781 s |
| Cc1ccc(-c2nc3nc(C)c(CC(=O)N4CCCC4)c(C)n3n2)cc1 | 738 s |
| Cc1ccc2nc(C(=O)NC3CCN(Cc4ccccc4)CC3)cn2c1 | 560 s |
| Cc1cccc(-c2noc(-c3nn(CC(=O)NCC4CCCO4)c4ccccc34)n2)c1 (stereo not drawn) | 1040 s |
| CN(C(=O)c1cc2c(=O)oc3ccccc3c2n1C)c1cccc(Cl)c1 | 933 s |
| CCN1CCN(CCCNC(=O)c2noc(C)c2Cn2nc(C)cc2C)CC1 | 572 s |
| COc1ccc(-c2noc(CS(=O)(=O)c3ccc(Cl)cc3)n2)cc1OC | 1030 s |
| Cc1cccc2nnc(N3CCN(C(=O)c4cccnc4)CC3)n12 | 515 s |
| CCC(C)NC(=O)Cn1cnc2nc(N3CCCC(C(=O)NC4CC4)C3)sc2c1=O (stereo not drawn) | 610 s |
| COc1ccc(S(=O)(=O)NCc2c(-c3ccccc3)nc3sc(C)nn23)cc1Cl | 912 s |
| Cc1cc(S(=O)(=O)[C@H]2CS(=O)(=O)C[C@@H]2N2CCN(c3ccccc3)CC2)ccc1F | 994 s |
| CCCN1CCN(S(=O)(=O)c2cc(-c3nnc(C4CCC4)o3)co2)CC1 | 622 s |

| Structure (SMILES) | RP-LC retention time |
| --- | --- |
| COCCOCc1nc(C2CCN(S(=O)(=O)c3c(C)noc3C)CC2)no1 | 793 s |
| O=C1CCCCC(Cc2ccccc2)(C(=O)NCc2cccc(C(F)(F)F)c2)N1 (stereo not drawn) | 893 s |
| Cc1nnc(-c2ccc3ccn(CC(=O)Nc4cccc(Cl)c4)c3c2)o1 | 847 s |
| COCCN1CCn2cc(S(=O)(=O)Nc3cccc(OC)c3)cc2C1=O | 670 s |
| O=C(c1cc(-c2ccncc2)n[nH]1)N1CCCC(C(=O)N2CCN(c3ncccn3)CC2)C1 (stereo not drawn) | 579 s |
| CCOC(=O)Cc1ccc(NC(=O)NCc2c(C)nn(C)c2C)cc1 | 680 s |
| CCOc1ccc(NC(=O)Cn2c(=O)n(-c3ccc(F)cc3)c(=O)c3c2cc(C)n3C)cc1 | 866 s |
| CN1C(=O)c2ccccc2Sc2ccc(NC(=O)N3CCN(c4ccccn4)CC3)cc21 | 645 s |
| CCOc1ccc(S(=O)(=O)N(CC(=O)N2CCNCC2)CC2CCCO2)cc1 (stereo not drawn) | 626 s |
| CCc1cc(C(=O)Nc2cc(OC)cc(OC)c2)nc2cc(-c3ccco3)nn12 | 795 s |
| CC(C)NC(=O)C1CCN(C(=O)c2ncn3c2COC(c2ccccc2)C3)CC1 (stereo not drawn) | 686 s |
| COc1cccc(S(=O)(=O)N2CCN(c3cnn4c(C)nnc4c3)CC2)c1 | 671 s |
| CCS(=O)(=O)c1ccc2c(c1)N(Cc1nc(-c3ccc(OC)c(OC)c3)no1)C(=O)CO2 | 817 s |
| Fc1ccccc1-c1ccc(CNCc2ccco2)o1 | 659 s |
| O=C(N[C@@H]1CN(Cc2ccsc2)CC[C@@H]1CO)c1ccccc1 | 591 s |
| CCn1cc(CCNS(=O)(=O)c2ccccc2F)c2cccnc21 | 745 s |
| COc1ccc(C2(C(=O)NCC3Cn4cccc4C(=O)N3C)CC2)cc1 (stereo not drawn) | 707 s |
| O=C(O)c1cnc(N2CCOCC2)nc1-c1ccccn1 | 604 s |
| Cn1cnnc1C1CCCCN1C(=O)c1cc(-c2cccs2)[nH]n1 (stereo not drawn) | 637 s |
| COc1ccccc1CNS(=O)(=O)c1cc(-c2[nH]ncc2C(=O)N2CCCC2)oc1C | 694 s |
| O=S(=O)(Cc1ccccc1F)N1CCCCC1c1nc(-c2ccccc2)n[nH]1 (stereo not drawn) | 948 s |
| CC(=O)c1cccc(C(=O)N2CCC3(CC2)NC(=O)N(Cc2cccc(Cl)c2)C3=O)c1 | 771 s |

| Structure (SMILES) | RP-LC retention time |
| --- | --- |
| Cn1nccc1-c1cccc(-c2noc(-c3ccc(Br)cc3)n2)c1 | 1280 s |
| CC(NC(=O)C1CCCN(C(=O)c2cc3sccc3n2C)C1)c1ccccc1 (stereo not drawn) | 628 s |
| Cn1cc(S(=O)(=O)N2CCC(C(=O)NCc3cccs3)CC2)cc1C(=O)N1CCCC1 | 706 s |
| Cc1cccc(-n2c(=O)c3sccc3n(Cc3nc(-c4ccccc4C)no3)c2=O)c1 | 1070 s |
| COc1ccc(OC)c(NC(=O)c2nc(N(C)C)c3c(C)cc(C)nc3n2)c1 | 676 s |
| COc1cccc(-c2nc(CN3CCCC3=O)no2)c1 | 697 s |
| CCc1nc(-c2csc(S(=O)(=O)N3CCCC(C(=O)Nc4ccc(OC)cc4)C3)c2)no1 (stereo not drawn) | 917 s |
| CC1=C(c2ccc(Cl)cc2)S(=O)(=O)N=C1N1CCC(NC(=O)C2CCOC2)CC1 (stereo not drawn) | 733 s |
| C=CCNC(=O)NC1CCN(C2=NS(=O)(=O)C(c3cccc(Cl)c3)=C2C)CC1 | 861 s |
| COCc1cc(=O)n(CC(=O)Nc2c(C)cccc2C)c(N)n1 | 604 s |
| COc1ccc(C2C(C(=O)O)CCC(=O)N2c2ccc(OC)cc2)cc1 (stereo not drawn) | 656 s |
| CN1CCC(OC2CCN(C(=O)c3ccc(Cl)s3)CC2)CC1 | 609 s |
| COc1ccc(-c2nc(C)cc3nn(CC(=O)Nc4cc(C)cc(C)c4)c(=O)n23)cc1 | 906 s |
| CC1CCN(C(=O)CN2C(=O)COc3ccc(C(=O)N4CCCC4)cc32)CC1 | 698 s |
| O=C(NCCn1nnc2cc(C(=O)N3CCCC3)ccc21)Nc1ccc(Br)cc1 | 704 s |
| Cc1ccc(-c2nc(-c3ccc4nnn(C)c4c3)no2)cc1 | 968 s |
| COc1ccc(C2Cn3cnc(C(=O)N4CCC(C(=O)NC5CC5)CC4)c3CO2)cc1 (stereo not drawn) | 648 s |
| CCc1nnc2cc(N3CCN(S(=O)(=O)c4ccc(C(C)C)cc4)CC3)cnn12 | 820 s |
| CCOC(=O)c1c(S(=O)(=O)N2CCC(C(=O)Nc3ccc(CC)cc3)CC2)c(C)n(C)c1C | 943 s |
| N#Cc1cccc(NC(=O)c2cc(C3CC3)n3nccc3n2)c1 | 942 s |
| COc1ccc(NC(=O)N2CCC(n3c(C)nc4cccnc43)CC2)cc1OC | 563 s |
| CCCS(=O)(=O)NCC1CC(=O)N(c2ccc(F)cc2)C1 (stereo not drawn) | 669 s |
